Source: patent US9409966B2, “Glucagon-like peptide-1 derivatives and their pharmaceutical use” (priority 2007, dated 2016)
*1 amine or outer side, *2 acyl side, *3 side chain or, on linkers, in order; H or OH if unused. Where a SMILES comes first, the peptide text is derived from it. Side-chain parts run from the residue outwards. [ ]: non-standard residue; d: D form. The star is where a group is joined. C18 diacid = O=C(O)CCCCCCCCCCCCCCCCC(=O)*; γGlu = O=C(O)[C@H](CCC(=O)[*:2])N[*:1]; Palmitoyl = CCCCCCCCCCCCCCCC(=O)*; AEEA = NCCOCCOCC(=O)O; Aib = CC(C)(N)C(=O)O

Experiments:
human GLP-1 receptor = molecular target: T1, human GLP-1 receptor (Homo sapiens, UniProt P43220); assay: Stimulation of cAMP formation in a cell line expressing the cloned human GLP-1 receptor; assay type: biochemical; settings: cAMP production, purified plasma membranes from BHK467-12A (tk-ts13), AlphaScreen cAMP Assay Kit; read-out: Potency [EC50/nM]
T1 construct: expressed in transfected cells; host or cells: BHK467-12A (tk-ts13) baby hamster kidney cells; purified plasma membranes
T1 sequence (P43220 24-463): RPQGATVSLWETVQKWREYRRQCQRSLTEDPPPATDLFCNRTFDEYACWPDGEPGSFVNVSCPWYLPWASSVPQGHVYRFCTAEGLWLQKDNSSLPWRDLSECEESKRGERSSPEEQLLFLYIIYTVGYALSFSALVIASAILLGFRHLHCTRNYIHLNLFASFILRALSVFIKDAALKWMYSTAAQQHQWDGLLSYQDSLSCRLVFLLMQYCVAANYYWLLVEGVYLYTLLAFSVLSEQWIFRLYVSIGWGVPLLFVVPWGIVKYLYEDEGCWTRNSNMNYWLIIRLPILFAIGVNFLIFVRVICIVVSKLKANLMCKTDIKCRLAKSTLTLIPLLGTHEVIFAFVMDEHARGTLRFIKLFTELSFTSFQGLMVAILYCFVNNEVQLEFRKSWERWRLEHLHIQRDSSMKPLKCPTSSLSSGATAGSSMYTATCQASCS
Method: A stable transfected cell line has been prepared at NN A/S, Denmark, and a high expressing clone was selected for screening. The cells were grown at 5% CO2 in DMEM, 5% FCS, 1% Pen/Strep (Penicillin/Streptomycin) and 0.5 mg/ml of the selection marker G418.
Cells at approximate 80% confluence were washed 2× with PBS (Phosphate Buffered Saline) and harvested with Versene (aqueous solution of the tetrasodium salt of ethylenediaminetetraacetic acid), centrifuged 5 min at 1000 rpm and the supernatant removed. The additional steps were all made on ice. […] Suspension in Buffer 2, homogenization and centrifugation was repeated once and the membranes were resuspended in Buffer 2 and ready for further analysis or stored at −80° C.
The functional receptor assay was carried out by measuring the peptide induced cAMP production by The AlphaScreen Technology. […] The capture of cAMP is achieved by using a specific antibody conjugated to acceptor beads. Formed cAMP was counted and measured at a AlphaFusion Microplate Analyzer. The EC50 values were calculated using the Graph-Pad Prisme software (version 5).

[1] = molecular target: human serum albumin (HSA) (Homo sapiens, UniProt P02768); assay: Albumin binding affinity, competition scintillation proximity assay (SPA)
human serum albumin (HSA), sequence (P02768 25-609): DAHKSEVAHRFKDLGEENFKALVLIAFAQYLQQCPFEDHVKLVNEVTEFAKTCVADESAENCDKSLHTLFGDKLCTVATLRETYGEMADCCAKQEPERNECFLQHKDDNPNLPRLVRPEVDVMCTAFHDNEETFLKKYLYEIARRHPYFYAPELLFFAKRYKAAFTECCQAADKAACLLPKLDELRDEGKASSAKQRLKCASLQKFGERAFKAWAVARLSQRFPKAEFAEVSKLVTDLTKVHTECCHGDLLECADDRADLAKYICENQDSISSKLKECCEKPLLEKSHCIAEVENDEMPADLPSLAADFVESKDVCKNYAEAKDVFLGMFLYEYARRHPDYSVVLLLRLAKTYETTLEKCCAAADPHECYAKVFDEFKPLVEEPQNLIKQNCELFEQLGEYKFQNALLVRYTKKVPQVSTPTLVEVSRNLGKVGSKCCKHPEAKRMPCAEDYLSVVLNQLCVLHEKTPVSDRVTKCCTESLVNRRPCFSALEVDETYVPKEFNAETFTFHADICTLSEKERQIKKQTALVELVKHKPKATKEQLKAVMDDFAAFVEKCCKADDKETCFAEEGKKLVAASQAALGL
Method: Streptavidin-SPA beads (GE Healthcare RPNQ0009) were incubated with biotinylated HSA for 5 hours. The beads were washed with buffer to remove unbound HSA. […] After 20 hours of gentle rocking at room temperature the plates were centrifuged and counted on a TopCounter.

| SMILES | EC50 (human GLP-1 receptor) | EC50 [1] |
| --- | --- | --- |
| CC[C@H](C)[C@H](NC(=O)[C@H](Cc1ccccc1)NC(=O)[C@H](CCC(=O)O)NC(=O)[C@H](CCCNC(=N)N)NC(=O)[C@H](C)NC(=O)[C@H](C)NC(=O)[C@H](CCC(N)=O)NC(=O)[C@H](CCC(=O)O)NC(=O)[C@H](CCC(=O)O)NC(=O)[C@H](CC(C)C)NC(=O)[C@H](Cc1ccc(O)cc1)NC(=O)[C@H](CO)NC(=O)[C@H](CO)NC(=O)[C@@H](NC(=O)[C@H](CC(=O)O)NC(=O)[C@H](CO)NC(=O)[C@@H](NC(=O)[C@H](Cc1ccccc1)NC(=O)[C@@H](NC(=O)CNC(=O)[C@H](CCC(=O)O)NC(=O)C(C)(C)NC(=O)[C@@H](N)Cc1c[nH]cn1)[C@@H](C)O)[C@@H](C)O)C(C)C)C(=O)N[C@@H](C)C(=O)N[C@@H](Cc1c[nH]c2ccccc12)C(=O)N[C@@H](CC(C)C)C(=O)N[C@H](C(=O)N[C@@H](CCCNC(=N)N)C(=O)NCC(=O)N[C@@H](CCCNC(=N)N)C(=O)N[C@@H](CCCCNC(=O)COCCOCCNC(=O)CC[C@H](NC(=O)CC[C@H](NC(=O)CCCCCCCCCCCNC(=O)CCCS(=O)(=O)NC(=O)CCCCCCCCCCCCCCCc1nnn[nH]1)C(=O)O)C(=O)O)C(N)=O)C(C)C [Example 12, N-epsilon37-[2-(2-{2-[(S)-4-Carboxy-4-((S)-4-carboxy-4-{12-[4-(16-(1H-tetrazol-5-yl)hexadecanoylsulfamoyl)butyrylamino]dodecanoylamino}butyrylamino)butyrylamino]ethoxy}ethoxy)acetyl][Aib8,Glu22,Arg26,Arg34,Lys37]GLP-1-(7-37)amide] | 1.8 nM | 800 to 1500 nM |
| CC[C@H](C)[C@H](NC(=O)[C@H](Cc1ccccc1)NC(=O)[C@H](CCC(=O)O)NC(=O)[C@H](CCCNC(=N)N)NC(=O)[C@H](C)NC(=O)[C@H](C)NC(=O)[C@H](CCC(N)=O)NC(=O)[C@H](CCC(=O)O)NC(=O)[C@H](CCC(=O)O)NC(=O)[C@H](CC(C)C)NC(=O)[C@H](Cc1ccc(O)cc1)NC(=O)[C@H](CO)NC(=O)[C@H](CO)NC(=O)[C@@H](NC(=O)[C@H](CC(=O)O)NC(=O)[C@H](CO)NC(=O)[C@@H](NC(=O)[C@H](Cc1ccccc1)NC(=O)[C@@H](NC(=O)CNC(=O)[C@H](CCC(=O)O)NC(=O)[C@H](C)NC(=O)CCc1c[nH]cn1)[C@@H](C)O)[C@@H](C)O)C(C)C)C(=O)N[C@@H](C)C(=O)N[C@@H](Cc1c[nH]c2ccccc12)C(=O)N[C@@H](CC(C)C)C(=O)N[C@H](C(=O)N[C@@H](CCCNC(=N)N)C(=O)NCC(=O)N[C@@H](CCCNC(=N)N)C(=O)N[C@@H](CCCCNC(=O)COCCOCCNC(=O)COCCOCCNC(=O)CC[C@H](NC(=O)CCCCCCCCCCCCCCCCCCC(=O)O)C(=O)O)C(=O)O)C(C)C [Example 22, N-epsilon37-[2-(2-{2-[2-(2-{2-[(S)-4-Carboxy-4-(19-carboxynonadecanoylamino)butyrylamino]ethoxy}ethoxy)acetylamino]ethoxy}ethoxy)acetyl][DesaminoHis7,Glu22,Arg26,Arg34,Lys37]GLP-1-(7-37)] | 1.35 nM | 400 to 800 nM |
| CC[C@H](C)[C@H](NC(=O)[C@H](Cc1ccccc1)NC(=O)[C@H](CCC(=O)O)NC(=O)[C@H](CCCNC(=N)N)NC(=O)[C@H](C)NC(=O)[C@H](C)NC(=O)[C@H](CCC(N)=O)NC(=O)[C@H](CCC(=O)O)NC(=O)[C@H](CCC(=O)O)NC(=O)[C@H](CC(C)C)NC(=O)[C@H](Cc1ccc(O)cc1)NC(=O)[C@H](CO)NC(=O)[C@H](CO)NC(=O)[C@@H](NC(=O)[C@H](CC(=O)O)NC(=O)[C@H](CO)NC(=O)[C@@H](NC(=O)[C@H](Cc1ccccc1)NC(=O)[C@@H](NC(=O)CNC(=O)[C@H](CCC(=O)O)NC(=O)C(C)(C)NC(=O)[C@@H](N)Cc1c[nH]cn1)[C@@H](C)O)[C@@H](C)O)C(C)C)C(=O)N[C@@H](C)C(=O)N[C@@H](CCCCNC(=O)COCCOCCNC(=O)COCCOCCNC(=O)CC[C@H](NC(=O)CCCCCCCCCCCCCCCCC(=O)O)C(=O)O)C(=O)N[C@@H](CC(C)C)C(=O)N[C@H](C(=O)N[C@@H](CCCCN)C(=O)NCC(=O)N[C@@H](CCCNC(=N)N)C(=O)NCC(=O)O)C(C)C [Example 23, N-epsilon31-[2-(2-{2-[2-(2-{2-[4-Carboxy-4-(17-carboxy-heptadecanoylamino)butyrylamino]ethoxy}ethoxy)acetylamino]ethoxy}ethoxy)acetyl][Aib8,Glu22,Arg26,Lys31]GLP-1-(7-37)] (H-H[Aib]EGTFTSDVSSYLEEQAAREFIAK([AEEA-AEEA-γGlu-C18 diacid])LVKGRG-OH) | 0.02 nM | 1500 to 2000 nM |
| CCCCCCCCCCCCCCCC(=O)N[C@@H](CCC(=O)NCCOCCOCC(=O)NCCOCCOCC(=O)NCCCC[C@H](NC(=O)[C@H](Cc1ccc(O)cc1)NC(=O)[C@H](CO)NC(=O)[C@H](CO)NC(=O)[C@@H](NC(=O)[C@H](CC(=O)O)NC(=O)[C@H](CO)NC(=O)[C@@H](NC(=O)[C@H](Cc1ccccc1)NC(=O)[C@@H](NC(=O)CNC(=O)[C@H](CCC(=O)O)NC(=O)C(C)(C)NC(=O)[C@@H](N)Cc1c[nH]cn1)[C@@H](C)O)[C@@H](C)O)C(C)C)C(=O)N[C@@H](CCC(=O)O)C(=O)N[C@@H](CCC(=O)O)C(=O)N[C@@H](CCC(N)=O)C(=O)N[C@@H](C)C(=O)N[C@@H](C)C(=O)N[C@@H](CCCNC(=N)N)C(=O)N[C@@H](CCC(=O)O)C(=O)N[C@@H](Cc1ccccc1)C(=O)N[C@H](C(=O)N[C@@H](CCC(=O)O)C(=O)N[C@@H](Cc1c[nH]c2ccccc12)C(=O)N[C@@H](CC(C)C)C(=O)N[C@H](C(=O)N[C@@H](CCCCN)C(=O)NCC(=O)N[C@@H](CCCNC(=N)N)C(=O)N1CCC[C@H]1C(N)=O)C(C)C)[C@@H](C)CC)C(=O)O [Example 24, N-epsilon20-(2-{2-[2-(2-{2-[2-((S)-4-Carboxy-4-hexadecanoylamino-butyrylamino)ethoxy]ethoxy}acetylamino)ethoxy]ethoxy}-acetyl)[Aib8,Lys20,Glu22,Arg26,Glu30,Pro37]GLP-1-(7-37)amide] (H-H[Aib]EGTFTSDVSSYK([AEEA-AEEA-γGlu-Palmitoyl])EEQAAREFIEWLVKGRP-NH2) | 0.01 nM | 1500 to 2000 nM |

Other lines, results leading:

| EC50 (human GLP-1 receptor) | EC50 [1] | SMILES |
| --- | --- | --- |
| 1.97 nM | 100 to 150 nM | CC[C@H](C)[C@H](NC(=O)[C@H](Cc1ccccc1)NC(=O)[C@H](CCC(=O)O)NC(=O)[C@H](CCCNC(=N)N)NC(=O)[C@H](C)NC(=O)[C@H](C)NC(=O)[C@H](CCC(N)=O)NC(=O)[C@H](CCC(=O)O)NC(=O)[C@H](CCC(=O)O)NC(=O)[C@H](CC(C)C)NC(=O)[C@H](Cc1ccc(O)cc1)NC(=O)[C@H](CO)NC(=O)[C@H](CO)NC(=O)[C@@H](NC(=O)[C@H](CC(=O)O)NC(=O)[C@H](CO)NC(=O)[C@@H](NC(=O)[C@H](Cc1ccccc1)NC(=O)[C@@H](NC(=O)CNC(=O)[C@H](CCC(=O)O)NC(=O)[C@H](C)NC(=O)CCc1c[nH]cn1)[C@@H](C)O)[C@@H](C)O)C(C)C)C(=O)N[C@@H](C)C(=O)N[C@@H](Cc1c[nH]c2ccccc12)C(=O)N[C@@H](CC(C)C)C(=O)N[C@H](C(=O)N[C@@H](CCCNC(=N)N)C(=O)NCC(=O)N[C@@H](CCCNC(=N)N)C(=O)N[C@@H](CCCCNC(=O)COCCOCCNC(=O)CC[C@H](NC(=O)CC[C@H](NC(=O)CCCCCCCCCCCNC(=O)CCCS(=O)(=O)NC(=O)CCCCCCCCCCCCCCCc1nnn[nH]1)C(=O)O)C(=O)O)C(N)=O)C(C)C [Example 13, N-epsilon37-[2-(2-{2-[(S)-4-Carboxy-4-((S)-4-carboxy-4-{12-[4-(16-(1H-tetrazol-5-yl)hexadecanoylsulfamoyl)butyrylamino]dodecanoylamino}butyrylamino)butyrylamino]ethoxy}ethoxy)acetyl][DesaminoHis7,Glu22,Arg26,Arg34,Lys37]GLP-1-(7-37)amide] |
| 0.02 nM | > 2000 nM | CCCCCCCCCCCCCCCC(=O)N[C@@H](CCC(=O)NCCOCCOCC(=O)NCCOCCOCC(=O)NCCCC[C@H](NC(=O)[C@H](CCCNC(=N)N)NC(=O)CNC(=O)[C@H](CCCNC(=N)N)NC(=O)[C@@H](NC(=O)[C@H](CC(C)C)NC(=O)[C@H](Cc1c[nH]c2ccccc12)NC(=O)[C@H](C)NC(=O)[C@@H](NC(=O)[C@H](Cc1ccccc1)NC(=O)[C@H](CCC(=O)O)NC(=O)[C@H](CCCNC(=N)N)NC(=O)[C@H](C)NC(=O)[C@H](C)NC(=O)[C@H](CCC(N)=O)NC(=O)[C@H](CCC(=O)O)NC(=O)[C@H](CCC(=O)O)NC(=O)[C@H](CC(C)C)NC(=O)[C@H](Cc1ccc(O)cc1)NC(=O)[C@H](CO)NC(=O)[C@H](CO)NC(=O)[C@@H](NC(=O)[C@H](CC(=O)O)NC(=O)[C@H](CO)NC(=O)[C@@H](NC(=O)[C@H](Cc1ccccc1)NC(=O)[C@@H](NC(=O)CNC(=O)[C@H](CCC(=O)O)NC(=O)[C@H](C)NC(=O)CCc1c[nH]cn1)[C@@H](C)O)[C@@H](C)O)C(C)C)[C@@H](C)CC)C(C)C)C(N)=O)C(=O)O [Example 18, N-epsilon37-{2-(2-(2-(2-[2-(2-(4-(hexadecanoylamino)-4-carboxybutyrylamino)ethoxy)ethoxy]acetyl)ethoxy)ethoxy)acetyl)}-[desaminoHis7,Glu22, Arg26,Arg34,Lys 37] (GLP-1-(7-37)amide] |
| 1.27 nM | > 2000 nM | CC[C@H](C)[C@H](NC(=O)[C@H](Cc1ccccc1)NC(=O)[C@H](CCC(=O)O)NC(=O)[C@H](CCCNC(=N)N)NC(=O)[C@H](C)NC(=O)[C@H](C)NC(=O)[C@H](CCC(N)=O)NC(=O)[C@H](CCC(=O)O)NC(=O)[C@H](CCC(=O)O)NC(=O)[C@H](CC(C)C)NC(=O)[C@H](Cc1ccc(O)cc1)NC(=O)[C@H](CO)NC(=O)[C@H](CO)NC(=O)[C@@H](NC(=O)[C@H](CC(=O)O)NC(=O)[C@H](CO)NC(=O)[C@@H](NC(=O)[C@H](Cc1ccccc1)NC(=O)[C@@H](NC(=O)CNC(=O)[C@H](CCC(=O)O)NC(=O)[C@H](C)NC(=O)CCc1c[nH]cn1)[C@@H](C)O)[C@@H](C)O)C(C)C)C(=O)N[C@@H](C)C(=O)N[C@@H](Cc1c[nH]c2ccccc12)C(=O)N[C@@H](CC(C)C)C(=O)N[C@H](C(=O)N[C@@H](CCCNC(=N)N)C(=O)NCC(=O)N[C@@H](CCCNC(=N)N)C(=O)N[C@@H](CCCCNC(=O)CCCS(=O)(=O)NC(=O)CCCCCCCCCCCCCCCc1nnn[nH]1)C(N)=O)C(C)C [Example 21, N-epsilon37-[4-(16-(1H-Tetrazol-5-yl)hexadecanoylsulfamoyl)butyryl][DesaminoHis7,Glu22,Arg26,Arg34,Lys37]GLP-1-(7-37)amide] |
